Test system: primary cerebellum granule cells of rats
Assay: Protective effects of compounds on primary cerebellum granule cells of rats (glutamate-induced excitotoxic injury, MTT)
Assay type: cell-based
Settings: pre-protection 2 h, 200 iM glutamate 24 h, MTT cell viability; read-out: EC50, protective effects of the compounds on rat's nerve cells
Protocol: Isolated primary cerebellum granule cells of infant rats were inoculated in 96-well plates with 1.2×10^5/well by using 10% FBS+25 mM KCl+2 mM Glutamine+1% of double-antibody BME medium. After 24 hours, cytarabine with a final concentration of 10 iM was added to inhibit the proliferation of neurogliocyte cells. After the day 4, glucose with the final concentration of 5 mM was added every four days to complement energy metabolism and water evaporation of cells. The materials were placed in a cell incubator (37° C., 5% CO2) to be cultured for 10 days. […] After pre-protection for 2 h, 200 iM of glutamate was added to induce cell damage for 24 h, and then MTT was added to culture for 4 h. The supernatant fraction was sucked, and 150 iL of DMSO was added to each well for dissolving. After blending with shaking, the light absorption values under 570 nm wavelength was measured with a microplate reader, and the viability of cells was calculated. Cell viability (%)=absorbance of different groups/absorbance of the normal control group×100%.

SMILES | EC50 [µM]
CC12CC3CC(N)(C1)CC(O[N+](=O)[O-])(C3)C2 (stereo not shown) [NM-001] | 24.6
CCC12CC3CC(N)(C1)CC(O[N+](=O)[O-])(C3)C2 (stereo not shown) [NM-003] | 15.4
CCC12CC3CC(N)(C1)CC(CO[N+](=O)[O-])(C3)C2 (stereo not shown) [NM-004] | 8.12
CCC12CC3CC(N)(C1)CC(CCCO[N+](=O)[O-])(C3)C2 (stereo not shown) [NM-005] | 6.06
NC12CC3CC(CCO[N+](=O)[O-])(C1)CC(CCO[N+](=O)[O-])(C3)C2 [NM-009] | 5.2
CC(CO[N+](=O)[O-])CC12CC3CC(N)(C1)CC(CC(C)CO[N+](=O)[O-])(C3)C2 (stereo not shown) [NM-012] | 9.3
CCC12CC3(N)CC(CC)(C1)CC(O[N+](=O)[O-])(C3)C2 [YQW-036, reference compound] | 31.4
